Data taken from patent publication US10920265B2, “Compounds and methods for detection of enzymes that remove methyl succinyl groups from epsilon-amino lysine moieties” (Enzo Life Sciences, Inc., priority 2011, dated 2021).
*: point of attachment. AMC = Cc1cc(=O)oc2cc(N*)ccc12

Key:
[1] = test system: HeLa cell extracts; experiment: HeLa cell extract Ac-Lys(ε-succinyl)-AMC desuccinylation activity; type: biochemical, human; conditions: 50 μM Ac-Lys(Succ.)-AMC, +NAD^+ 500 μM; TSA 1 μM, suramin 200 μM
Protocol: (§1) Enzyme and extract catalog products obtained from ENZO Life Sciences included: HDAC1 (Cat. # BML-SE456), HDAC2 (Cat. # BML-SE500), HDAC3 (Cat. # BML-SE507), HDAC3/NCOR1 Complex (Cat. # BML-SE515), HDAC6 (Cat. # BML-SE508), HDAC8 (Cat. # BML-SE145), HDAC10 (Cat. # BML-SE559), HDAC11 (Cat. # BML-SE560), SIRT1 (Cat. # BML-SE239), SIRT2 (Cat. # BML-SE251), SIRT3 (Cat. # BML-SE270), SIRT5 (Cat. # BML-SE555), HeLa Nuclear Extract (Cat. # BML-KI140), Trypsin (“Fluor de Lys Developer”, 80 mg/ml bovine trypsin in 1 mM HCl, Cat. # BML-KI105 or “Fluor de Lys Developer II”, 80 mg/ml bovine trypsin in 1 mM HCl, Cat. # BML-KI176). […] Enzymes obtained from BPS Bioscience, San Diego, Calif. included: human recombinants SIRT4 (Cat. #50015), SIRT6 (Cat. #50017), SIRT7 (Cat. #50018). HeLa whole cell extract was obtained from HeLa S3 cells (American Type Culture Collection) grown in a medium of MEM/10% fetal bovine serum (FBS) as follows: 1) 9×10^6 cells were suspended by trypsinization, followed by a phosphate buffered saline (PBS) rinse and addition of MEM/10% FBS (1.5 mL) to eliminate trypsin before transfer to a 15 mL conical tube; 2) cells were sedimented by a low speed centrifugation, gently resuspended in PBS and sedimented again and supernatant removed; 3) lysis was induced by resuspension in 0.8 mL 50 mM Tris/HCl, pH 8.0 with the non-denaturing detergent NP-40 (0.5%), placement on ice and brief vortexing every 5 min. for 30 min.; 4) 100 μl of a concentrated salt solution in the same buffer was added in order to bring the final buffer composition to 50 mM Tris/C1, pH 8.0, 137 mM NaCl, 2.7 mM KCl, 1 mM MgCl2, 0.5% NP-40; 5) particulate matter was cleared by centrifugation and the cleared lysate supernatant transferred to a 1.5 mL Eppendorf tube and stored on ice until use in activity assays.
Assays were performed at 37° C., according to the manufacturer's instructions for the “SIRT1 Fluorometric Drug Discovery Kit” from Enzo Life Sciences (ELS) (Cat. # BML-AK555), with exceptions described as follows. […]

[2] = biological target: T1, SIRT5 (Homo sapiens, UniProt Q9NXA8); experiment: Inhibition of SIRT5 desuccinylation of Ac-Lys(Succ.)-AMC; type: biochemical; design: purchased Enzo Life Sciences BML-SE555; conditions: three parameter Hill-Slope model, bottom fixed at 0
T1 sequence (Q9NXA8 37-310): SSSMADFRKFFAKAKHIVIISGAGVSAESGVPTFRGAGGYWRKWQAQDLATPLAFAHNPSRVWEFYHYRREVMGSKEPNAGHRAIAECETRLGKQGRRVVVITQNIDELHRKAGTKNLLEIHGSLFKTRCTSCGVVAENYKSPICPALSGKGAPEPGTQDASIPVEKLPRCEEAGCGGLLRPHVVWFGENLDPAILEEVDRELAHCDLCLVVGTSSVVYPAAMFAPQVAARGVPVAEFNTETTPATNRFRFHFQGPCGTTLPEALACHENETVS
Text: Signal development (trypsin treatment) and fluorescence readings were done as described, as were the conversion of fluorescence increases to rates in units of pmol/min/μg (FIG. 5). Data points represent the mean of three determinations and the error bars are the standard deviations from those means. The dose-response curve was derived from a least-squares fit to a three parameter Hill-Slope model (bottom fixed at 0 pmol/min/μg), y=top/(1+(x/IC50)^slope).
Data points represent the mean of three determinations and the error bars are the standard deviations from those means. The dose-response curve was derived from a least-squares fit to a three parameter Hill-Slope model (bottom fixed at 0 pmol/min/μg), y=top/(1+(x/IC50)^slope).
(§2) Assays were performed at 37° C., according to the manufacturer's instructions for the “SIRT1 Fluorometric Drug Discovery Kit” from Enzo Life Sciences (ELS) (Cat. # BML-AK555), with exceptions described as follows. Where indicated in figures and text, SIRT1 enzyme was replaced with another enzyme or extract and the “Fluor de Lys-SIRT1 Substrate” (Ac-Arg-His-Lys-Lys(Ac)-AMC; ELS Cat. # BML-KI-177) was replaced with another acetylated, succinylated or trifluoroacetylated substrate.

[3] = biological target: T2, HDAC5 (Homo sapiens, UniProt Q9UQL6); experiment: HDAC activity with fluorogenic lysyl substrates; type: biochemical; conditions: 50 μM substrate
T2 construct: made in house; host or cells: E. coli
Protocol: (§3) The Ac-Lys(Succ.)-AMC substrate was tested for activity with recombinant preparations of human HDACs 1-11, SIRTs 1-4, 6 and 7, a complex of HDAC3 with a fragment of the activating protein NCOR1 and with HeLa nuclear extract, a rich source of active HDACs in their native multiprotein complexes.
as §1, §2

[4] = biological target: T3, HDAC7 (Homo sapiens, UniProt Q8WUI4); experiment: HDAC activity with fluorogenic lysyl substrates; type: biochemical; conditions: 50 μM substrate
T3 construct: made in house; host or cells: E. coli
T3 sequence (Q8WUI4 483-903): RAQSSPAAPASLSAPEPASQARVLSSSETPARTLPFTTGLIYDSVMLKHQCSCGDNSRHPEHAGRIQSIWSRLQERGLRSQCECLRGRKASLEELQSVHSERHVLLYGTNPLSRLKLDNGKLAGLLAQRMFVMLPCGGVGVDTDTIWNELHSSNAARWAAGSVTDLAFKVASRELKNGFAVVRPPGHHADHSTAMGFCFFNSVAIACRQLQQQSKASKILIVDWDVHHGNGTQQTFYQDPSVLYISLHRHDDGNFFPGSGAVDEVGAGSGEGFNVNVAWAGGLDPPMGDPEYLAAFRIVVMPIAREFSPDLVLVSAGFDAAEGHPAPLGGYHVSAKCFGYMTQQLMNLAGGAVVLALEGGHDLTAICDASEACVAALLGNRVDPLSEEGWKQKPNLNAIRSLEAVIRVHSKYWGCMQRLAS
Protocol: as §3, §1, §2

[5] = biological target: T4, HDAC9 (Homo sapiens, UniProt Q9UKV0); experiment: HDAC activity with fluorogenic lysyl substrates; type: biochemical; conditions: 50 μM substrate
T4 construct: made in house; host or cells: E. coli
Protocol: as §3, §1, §2

[6] = test system: HDAC4; experiment: HDAC activity with fluorogenic lysyl substrates; type: biochemical, human; conditions: 50 μM substrate
Protocol: as §3
Enzyme and extract catalog products obtained from ENZO Life Sciences included: HDAC1 (Cat. # BML-SE456), HDAC2 (Cat. # BML-SE500), HDAC3 (Cat. # BML-SE507), HDAC3/NCOR1 Complex (Cat. # BML-SE515), HDAC6 (Cat. # BML-SE508), HDAC8 (Cat. # BML-SE145), HDAC10 (Cat. # BML-SE559), HDAC11 (Cat. # BML-SE560), SIRT1 (Cat. # BML-SE239), SIRT2 (Cat. # BML-SE251), SIRT3 (Cat. # BML-SE270), SIRT5 (Cat. # BML-SE555), HeLa Nuclear Extract (Cat. # BML-KI140), Trypsin (“Fluor de Lys Developer”, 80 mg/ml bovine trypsin in 1 mM HCl, Cat. # BML-KI105 or “Fluor de Lys Developer II”, 80 mg/ml bovine trypsin in 1 mM HCl, Cat. # BML-KI176). […] Enzymes obtained from BPS Bioscience, San Diego, Calif. included: human recombinants SIRT4 (Cat. #50015), SIRT6 (Cat. #50017), SIRT7 (Cat. #50018). […]

[7] = biological target: T5, SIRT2 (Homo sapiens, UniProt Q8IXJ6); conditions: varied Lysyl, cited from earlier work
T5 sequence (Q8IXJ6 1-389): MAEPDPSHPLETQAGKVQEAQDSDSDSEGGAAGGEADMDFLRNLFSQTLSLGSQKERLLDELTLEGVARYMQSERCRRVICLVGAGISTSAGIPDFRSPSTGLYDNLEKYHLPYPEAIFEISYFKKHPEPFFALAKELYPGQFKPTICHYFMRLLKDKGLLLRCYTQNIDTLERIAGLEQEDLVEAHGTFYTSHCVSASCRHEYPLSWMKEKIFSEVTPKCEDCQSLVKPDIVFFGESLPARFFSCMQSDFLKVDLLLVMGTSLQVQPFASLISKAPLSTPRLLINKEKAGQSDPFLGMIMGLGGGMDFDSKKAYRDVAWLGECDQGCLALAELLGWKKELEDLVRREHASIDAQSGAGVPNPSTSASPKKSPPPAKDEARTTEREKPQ

[8] = biological target: T5, SIRT2; experiment: Sirtuin activity with fluorogenic lysyl substrates; type: biochemical; conditions: 50 μM substrate, 500 μM NAD^+
Protocol: as §3, §1, §2

[9] = biological target: T6, SIRT3 (Homo sapiens, UniProt Q9NTG7); experiment: Sirtuin activity with fluorogenic lysyl substrates; type: biochemical; conditions: 50 μM substrate, 500 μM NAD^+
T6 construct: purchased ENZO Life Sciences BML-SE270
T6 sequence (Q9NTG7 1-399): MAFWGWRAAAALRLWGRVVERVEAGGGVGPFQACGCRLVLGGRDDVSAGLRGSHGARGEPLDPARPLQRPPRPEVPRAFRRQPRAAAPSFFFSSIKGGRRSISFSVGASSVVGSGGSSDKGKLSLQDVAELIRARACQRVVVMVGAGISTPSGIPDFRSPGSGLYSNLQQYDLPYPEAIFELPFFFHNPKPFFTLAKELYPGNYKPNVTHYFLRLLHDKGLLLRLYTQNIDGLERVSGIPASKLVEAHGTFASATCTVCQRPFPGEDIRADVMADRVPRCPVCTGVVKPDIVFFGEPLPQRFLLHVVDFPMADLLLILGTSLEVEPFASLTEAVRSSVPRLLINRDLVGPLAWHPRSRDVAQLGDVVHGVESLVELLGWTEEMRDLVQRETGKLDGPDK
Protocol: as §3, §1, §2

[10] = test system: HeLa cells; experiment: Intact HeLa cell desuccinylation/deacetylation assay; type: cell-based, human; conditions: 200 μM Ac-Lys(Ac.)-AMC, four hours, TSA 1 μM
Protocol: HeLa cells were cultured to 95% confluence in the wells of ½-volume 96-well plates. […] After the indicated time, cells were lysed with detergent and trypsin added to release AMC from desuccinylated or deacetylated substrate and then fluorescence read (Ex.360 nm/Em. 460 nm). For “0 hr.” samples, substrate, inhibitors, lysis buffer and trypsin were added simultaneously. Bars represent the mean of three determinations and the error bars the Standard Deviation from that mean. Statistically significant differences between the fluorescences of “4 hr.” and “0 hr.” samples (Student's t-test) are indicated by asterisks as follows: *,p<0.02; **, p<0.002.
An assay employing Ac-Lys(Ac.)-AMC to measure the HDAC and sirtuin deacetylase activity of intact cultured cells has been described (Howitz, K. T. et al. Nature 425, 191-196 (2003); Product Manual of Enzo Life Sciences Cat. # BML-AK-503, “HDAC Fluorimetric Cellular Activity Assay Kit”, Appendix F). Ac-Lys(Ac)-AMC is added to the culture medium, enters the cells and is deacetylated by HDACs and sirtuins in their native intracellular context. Measurement of the amount of Ac-Lys-AMC produced by intracellular deacetylation is then accomplished by detergent lysis of the cells and release of the AMC fluorophore by trypsin. We therefore investigated whether Ac-Lys(Succ.)-AMC could be used to measure intracellular desuccinylation activity, in a similar fashion, with cultured HeLa cells. […] These latter, deacetylation results are consistent with previous observations made with this assay system (see Howitz, K. T. et al. Nature 425, 191-196 (2003) and Appendix F).
Assays (FIG. 10) were performed according to the manufacturer's instructions for the ““HDAC Fluorometric Cellular Activity Assay Kit” (ELS Cat. # BML-AK503), with exceptions described as follows. Where indicated the “Fluor de Lys Substrate” (Ac-Lys(Ac.)-AMC; ELS Cat. # BML-KI104) was replaced with Ac-Lys(Succ.)-AMC (1).

T4 sequence (Q9UKV0 644-1066 isoform Q9UKV0-5): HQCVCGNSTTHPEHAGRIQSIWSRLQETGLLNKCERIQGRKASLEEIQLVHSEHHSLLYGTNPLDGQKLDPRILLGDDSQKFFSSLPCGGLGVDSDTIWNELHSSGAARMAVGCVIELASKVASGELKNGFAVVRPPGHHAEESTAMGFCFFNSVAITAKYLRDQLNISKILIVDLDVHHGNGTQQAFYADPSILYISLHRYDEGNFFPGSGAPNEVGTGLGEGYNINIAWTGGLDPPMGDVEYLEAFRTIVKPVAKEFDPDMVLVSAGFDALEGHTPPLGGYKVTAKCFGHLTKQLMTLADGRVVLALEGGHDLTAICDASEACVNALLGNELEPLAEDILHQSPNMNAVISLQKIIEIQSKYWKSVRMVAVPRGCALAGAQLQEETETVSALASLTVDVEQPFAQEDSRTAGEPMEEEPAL
T2 sequence (Q9UQL6 656-1122): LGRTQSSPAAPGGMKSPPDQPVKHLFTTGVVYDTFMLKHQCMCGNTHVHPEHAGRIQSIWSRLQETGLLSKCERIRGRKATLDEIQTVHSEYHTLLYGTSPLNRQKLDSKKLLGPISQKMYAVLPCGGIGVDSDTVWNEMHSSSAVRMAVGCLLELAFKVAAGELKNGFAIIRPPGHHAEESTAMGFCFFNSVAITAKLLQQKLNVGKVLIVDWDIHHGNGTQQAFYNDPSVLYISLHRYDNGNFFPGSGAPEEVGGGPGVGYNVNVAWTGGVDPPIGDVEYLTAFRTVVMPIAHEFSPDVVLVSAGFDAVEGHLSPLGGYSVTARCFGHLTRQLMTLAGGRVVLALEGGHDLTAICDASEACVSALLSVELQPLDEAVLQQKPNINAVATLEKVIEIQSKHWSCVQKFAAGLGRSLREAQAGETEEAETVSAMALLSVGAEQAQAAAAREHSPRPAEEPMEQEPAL
Chain of HDAC4 (P56524 626-1084 limits assumed): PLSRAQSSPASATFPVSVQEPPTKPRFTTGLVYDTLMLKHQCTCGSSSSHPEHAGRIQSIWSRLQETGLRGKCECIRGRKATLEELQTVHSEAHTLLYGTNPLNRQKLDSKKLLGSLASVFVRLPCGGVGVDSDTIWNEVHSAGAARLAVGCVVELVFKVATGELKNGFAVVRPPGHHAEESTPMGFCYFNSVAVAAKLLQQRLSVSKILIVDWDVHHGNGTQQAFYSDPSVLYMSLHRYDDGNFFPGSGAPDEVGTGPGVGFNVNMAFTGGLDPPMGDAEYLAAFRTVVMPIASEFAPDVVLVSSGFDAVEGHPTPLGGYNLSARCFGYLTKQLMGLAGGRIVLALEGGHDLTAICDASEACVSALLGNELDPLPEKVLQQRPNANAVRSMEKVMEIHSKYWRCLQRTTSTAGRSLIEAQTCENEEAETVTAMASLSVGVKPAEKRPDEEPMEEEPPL

Cc1ccc(C(=O)Nc2ccc(S(=O)(=O)O)c3cc(S(=O)(=O)O)cc(S(=O)(=O)O)c23)cc1NC(=O)c1cccc(NC(=O)Nc2cccc(C(=O)Nc3cc(C(=O)Nc4ccc(S(=O)(=O)O)c5cc(S(=O)(=O)O)cc(S(=O)(=O)O)c45)ccc3C)c2)c1 [suramin]
Inhibition of the total 2 hr. fluorescence increase [1]: ~50%
slope (fitted parameter of dose-response curve) [2]: 2.37
top (fitted parameter of dose-response curve) [2]: 127 pmol/min/µg

Ac-Leu-Gly-Lys(TFAc)-AMC [Ac-LGK(TFAc)-AMC, reference compound]
Activity (pmol/min/μg) [3]: Ac-LGK(TFAc)-AMC/9960 pmol/min/μg
Activity (pmol/min/μg) [4]: Ac-LGK(TFAc)-AMC/1670 pmol/min/μg
Activity (pmol/min/μg) [5]: Ac-LGK(TFAc)-AMC/3330 pmol/min/μg
Activity (pmol/min/μg) [6]: Ac-LGK(TFAc)-AMC/1390 pmol/min/μg

Hist. H3 1-20, K9Ac: unlabeled peptide, histone H3 residues 1-20 acetylated on lysine-9
Km ([7]; Borra et al., 2004, read-out: Km (Lysyl substrate)): 24 µM
kcat ([7]; Borra et al., 2004): 0.24 s⁻¹

Ac-Gln-Pro-Lys-Lys(Ac)-AMC (Ac-QPKK(Ac)-{AMC}; SMILES CC(=O)NCCCC[C@H](NC(=O)[C@H](CCCCN)NC(=O)[C@@H]1CCCN1C(=O)[C@H](CCC(N)=O)NC(C)=O)C(=O)Nc1ccc2c(C)cc(=O)oc2c1) [Ac-QPKK(Ac)-AMC, reference compound]
Activity (pmol/min/μg) [8]: Ac-QPKK(Ac)-AMC/18.6 pmol/min/μg
Activity (pmol/min/μg) [9]: Ac-QPKK(Ac)-AMC/10.8 pmol/min/μg

CC(/C=C/C(=O)NO)=C\[C@@H](C)C(=O)c1ccc(N(C)C)cc1 [trichostatin A]
Inhibition of the total 2 hr. fluorescence increase [1]: ~50%
Fraction of deacetylation sensitive to inhibitor [10]: > 90%
